Our source for the IC50 values is US20170275269A1, “BENZYL SUBSTITUTED INDAZOLES AS BUB1 KINASE INHIBITORS” (Bayer Pharma Aktiengesellschaft, priority 2014, published 2017).

For assay [1], the target named is T1, catalytic domain of human Bub1 (amino acids 704-1085) (Homo sapiens, UniProt O43683).
T1 construct: catalytic domain of human Bub1 (amino acids 704-1085); His6 (N); made in house; host or cells: Hi5 insect cells
Nature of the assay: Bub1 kinase assay (TR-FRET). In kind it is biochemical. The procedure:
To this end, 100-fold concentrated compound solutions (in DMSO) were previously prepared by serial dilution (1:3.4) of 2 mM stocks in a clear low volume 384-well source microtiter plate (Greiner Bio-One, Frickenhausen, Germany), from which 50 nL of compounds were transferred into a black low volume test microtiter plate from the same supplier. […] The resulting mixture (5 μL final volume) was incubated at 22° C. during 60 min., and the reaction was stopped by the addition of 5 μL of an aqueous EDTA-solution (50 mM EDTA, in 100 mM HEPES pH 7.5 and 0.2% (w/v) bovine serum albumin) which also contained the TR-FRET detection reagents (0.2 μM streptavidin-XL665 [Cisbio Bioassays, Codolet, France] and 1 nM anti-phosho-Serine antibody [Merck Millipore, cat. #35-001] and 0.4 nM LANCE EU-W1024 labeled anti-mouse IgG antibody [Perkin-Elmer, product no. AD0077, alternatively a Terbium-cryptate-labeled anti-mouse IgG antibody from Cisbio Bioassays can be used]). The stopped reaction mixture was further incubated 1 h at 22° C. in order to allow the formation of complexes between peptides and detection reagents. Subsequently, the amount of product was evaluated by measurement of the resonance energy transfer from the Eu-chelate-antibody complex recognizing the Phosphoserine residue to the streptavidin-XL665 bound to the biotin moiety of the peptide. […] IC50 values were calculated by fitting the normalized inhibition data to a 4-parameter logistic equation (Minimum, Maximum, IC50, Hill; Y=Max+(Min−Max)/(1+(X/IC50)Hill)).
A general note: In TR-FRET formats the signal depends on donor and acceptor labels being close together.

Assay [2] deals with HeLa human cervical cancer cell line. Description: Proliferation assay (HeLa cell line). The settings on record: Homo sapiens, 96 h, read-out: Biological Assay 2: Proliferation assay (HeLa cell line) median IC50, HeLa, 4 days incubation, crystal violet.
Description: Cultivated tumor cells (cells were ordered from ATCC) were plated at a density of 3000 cells/well in a 96-well multititer plate in 200 μL of growth medium supplemented 10% fetal calf serum. After 24 hours, the cells of one plate (zero-point plate) were stained with crystal violet (see below), while the medium of the other plates was replaced by fresh culture medium (200 μL), to which the test substances were added in various concentrations (0 μM, as well as in the range of 0.001-10 μM; the final concentration of the solvent dimethyl sulfoxide was 0.5%). The cells were incubated for 4 days in the presence of test substances. Cell proliferation was determined by staining the cells with crystal violet: the cells were fixed by adding 20 μL/measuring point of an 11% glutaric aldehyde solution for 15 minutes at room temperature. After three washing cycles of the fixed cells with water, the plates were dried at room temperature. The cells were stained by adding 100 μL/measuring point of a 0.1% crystal violet solution (pH 3.0). After three washing cycles of the stained cells with water, the plates were dried at room temperature. The dye was dissolved by adding 100 μL/measuring point of a 10% acetic acid solution. Absorption was determined by photometry at a wavelength of 595 nm. The change of cell number, in percent, was calculated by normalization of the measured values to the absorption values of the zero-point plate (=0%) and the absorption of the untreated (0 μm) cells (=100%). The IC50 values were determined by means of a 4 parameter fit.
In assay [3] the test system is HeLa human cervical tumor cells. Nature of the assay: Proliferation Assay (HeLa+Paclitaxel). The settings on record: read-out: Biological Assay 3.0: Proliferation Assay (HeLa + Paclitaxel):, 3 nM paclitaxel, 92 hours with test substance.
Description: Proliferation Assay (HeLa+Paclitaxel):
Cultivated HeLa human cervical tumor cells (DSMZ ACC-57) were plated at a density of 3000 cells/well in a 96-well multititer plate in 200 μL of growth medium supplemented 10% fetal calf serum. After 24 hours, the cells of one plate (zero-point plate) were stained with crystal violet (see below). The medium of the other plates was supplemented with 3 nM of paclitaxel (Sigma-Aldrich) and the cells were incubated at 37° C. After 4 hours the test substances were added in various concentrations (0 μM, as well as in the range of 0.001-10 μM; the final concentration of the solvent dimethyl sulfoxide was adjusted to 0.1%) using a Hewlett-Packard HP D300 Digital Dispenser. The cells were incubated for another 92 hours at 37° C. in the presence of test substances. Cell proliferation was determined by staining the cells with crystal violet: the cells were fixed by adding 20 μL/measuring point of an 11% glutaric aldehyde solution for 15 minutes at room temperature. After three washing cycles of the fixed cells with water, the plates were dried at room temperature. The cells were stained by adding 100 μL/measuring point of a 0.1% crystal violet solution (pH 3.0). After three washing cycles of the stained cells with water, the plates were dried at room temperature. The dye was dissolved by adding 100 μL/measuring point of a 10% acetic acid solution. Absorption was determined by photometry at a wavelength of 595 nm. The change of cell number, in percent, was calculated by normalization of the measured values to the absorption values of the zero-point plate (=0%) and the absorption of the untreated (0 μm) cells (=100%). The IC50 values were determined by means of a 4 parameter fit.

T1 sequence (O43683 704-1085): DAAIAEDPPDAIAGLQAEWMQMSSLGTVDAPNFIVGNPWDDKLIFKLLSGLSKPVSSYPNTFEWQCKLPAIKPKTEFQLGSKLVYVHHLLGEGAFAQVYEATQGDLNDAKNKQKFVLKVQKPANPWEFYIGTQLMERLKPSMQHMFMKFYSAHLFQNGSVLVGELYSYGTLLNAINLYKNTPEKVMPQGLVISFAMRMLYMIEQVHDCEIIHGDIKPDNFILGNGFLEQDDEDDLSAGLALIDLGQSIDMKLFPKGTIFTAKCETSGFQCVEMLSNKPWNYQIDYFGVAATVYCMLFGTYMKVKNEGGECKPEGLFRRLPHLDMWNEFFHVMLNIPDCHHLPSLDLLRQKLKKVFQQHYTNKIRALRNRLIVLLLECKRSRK

`CCOc1cc(F)c(Cn2nc(-c3ncc(OC[C@H](C)NCC(F)(F)F)c(Nc4ccnc(C)n4)n3)c3ccccc32)c(F)c1` [Example 2-4-1, 2-[1-(4-ethoxy-2,6-difluorobenzyl)-1H-indazol-3-yl]-N-(2-methylpyrimidin-4-yl)-5-({(2S)-2-[(2,2,2-trifluoroethyl)amino]propyl}oxy)pyrimidin-4-amine]: the IC50 in assay [1] was 11 nM; in assay [2], 880 nM; in assay [3], 140 nM.
